In patent US20260295053A1, “COMPOUNDS FOR DEGRADATION AND INHIBITION OF KRAS (G12D) PROTEIN” (Shenzhen Ionova Life Science Co., Ltd., priority 2023, published 2026):

How the values were obtained:
[1] = target: T1, KRAS (G12D) (Homo sapiens, UniProt P01116, G12D); assay: KRAS (G12D) cellular degradation assay in AsPC-1 cells; type: cell-based; settings: 24 hours, antibody fluorescence (Odyssey CLX), DC50 half-maximal degradation concentration
T1 construct: in-cell western with KRAS G12D antibody after 24 h
T1 sequence (P01116 1-188 isoform P01116-2 G12D): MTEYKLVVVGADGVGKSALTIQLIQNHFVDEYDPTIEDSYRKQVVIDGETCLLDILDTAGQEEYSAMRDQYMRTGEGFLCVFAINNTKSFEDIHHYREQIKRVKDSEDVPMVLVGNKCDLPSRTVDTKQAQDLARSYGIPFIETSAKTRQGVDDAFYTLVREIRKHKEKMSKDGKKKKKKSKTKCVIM
Summary of the method: (§1)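 AsPC-1 cells were seeded at 22,000/well for degradation and 3,500/well for proliferation. Compounds in 1:3 dilutions ([…] to 1.5 nM final) ran 24 h for degradation, read by in-cell immunofluorescence of KRAS G12D normalised to β-actin, and 6 days for proliferation (CellTiter Glo luminescence). DC50/IC50 came from dose-response fits.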

[2] = tested on: AsPC-1 cells; assay: AsPC-1 cell proliferation assay (CellTiter Glo); type: cell-based; settings: 6 days
Summary of the method: as §1

| Compound | DC50 [1] | IC50 ([2]; Homo sapiens, ASPC1, 144 h) | IC50 [2] |
| --- | --- | --- | --- |
| CCn1nccc1-c1ccc([C@H](CO)NC(=O)[C@@H]2C[C@@H](O)CN2C(=O)[C@H](C(C)C)n2cc(-c3ccc(COc4c(-c5c(C)c(F)cc6[nH]ncc56)c(C5CC5)cc5c(N6C[C@@H]7C[C@H]6CN7)nc(N6CCC(OC)C6)nc45)cc3)nn2)cc1 (stereo partly drawn) [Example 112, (2S,4R)-1-((2S)-2-(4-(4-(((4-((1S,4S)-2,5-diazabicyclo[2.2.1]heptan-2-yl)-6-cyclopropyl-7-(6-fluoro-5-methyl-1H-indazol-4-yl)-2-(3-methoxypyrrolidin-1-yl)quinazolin-8-yl)oxy)methyl)phenyl)-1H-1,2,3-triazol-1-yl)-3-methylbutanoyl)-N—((R)-1-(4-(1-ethyl-1H-pyrazol-5-yl)phenyl)-2-hydroxyethyl)-4-hydroxypyrrolidine-2-carboxamide] | < 10 nM | < 10 nM |  |
| CCn1nccc1-c1ccc([C@H](CO)NC(=O)[C@@H]2C[C@@H](O)CN2C(=O)[C@H](C(C)C)n2cc(-c3ccc(COc4c(-c5c(C)c(F)cc6[nH]ncc56)c(C5CC5)cc5c(N6CCNCC[C@H]6C)nc(OC[C@H](C)OC)nc45)cc3)nn2)cc1 [Example 178, (2S,4R)-1-((2S)-2-(4-(4-(((6-cyclopropyl-7-(6-fluoro-5-methyl-1H-indazol-4-yl)-2-((S)-2-methoxypropoxy)-4-((R)-7-methyl-1,4-diazepan-1-yl)quinazolin-8-yl)oxy)methyl)phenyl)-1H-1,2,3-triazol-1-yl)-3-methylbutanoyl)-N—((R)-1-(4-(1-ethyl-1H-pyrazol-5-yl)phenyl)-2-hydroxyethyl)-4-hydroxypyrrolidine-2-carboxamide] | < 10 nM |  | < 10 nM |
| CO[C@@H](C)COc1nc(N(C)[C@H]2CCNC2)c2cc(C3CC3)c(-c3c(C)c(F)cc4[nH]ncc34)c(OCc3ccc(-c4cn([C@H](C(=O)N5C[C@H](O)C[C@H]5C(=O)N[C@H](c5ccc(-c6scnc6C)cc5)[C@H](C)O)C(C)C)nn4)cc3)c2n1 [Example 144, (2S,4R)-1-((2S)-2-(4-(4-(((6-cyclopropyl-7-(6-fluoro-5-methyl-1H-indazol-4-yl)-2-((S)-2-methoxypropoxy)-4-(methyl((S)-pyrrolidin-3-yl)amino)quinazolin-8-yl)oxy)methyl)phenyl)-1H-1,2,3-triazol-1-yl)-3-methylbutanoyl)-4-hydroxy-N-((1R,2S)-2-hydroxy-1-(4-(4-methylthiazol-5-yl)phenyl)propyl)pyrrolidine-2-carboxamide] | > 1000 nM |  | > 1000 nM |
| CCn1nccc1-c1ccc([C@H](CO)NC(=O)[C@@H]2C[C@@H](O)CN2C(=O)[C@H](C(C)C)n2cc(-c3ccc(COc4c(-c5c(C)c(F)cc6[nH]ncc56)c(C5CC5)cc5c(N6C[C@@H]7C[C@H]6CN7)nc(OC[C@H](C)OC)nc45)cc3Cl)nn2)cc1 [Example 32, (2S,4R)-1-((2S)-2-(4-(4-(((4-((1S,4S)-2,5-diazabicyclo[2.2.1]heptan-2-yl)-6-cyclopropyl-7-(6-fluoro-5-methyl-1H-indazol-4-yl)-2-((S)-2-methoxypropoxy)quinazolin-8-yl)oxy)methyl)-2-chlorophenyl)-1H-1,2,3-triazol-1-yl)-3-methylbutanoyl)-N—((R)-1-(4-(1-ethyl-1H-pyrazol-5-yl)phenyl)-2-hydroxyethyl)-4-hydroxypyrrolidine-2-carboxamide] | 10 to 100 nM | 10 to 100 nM |  |
| CCn1nccc1-c1ccc([C@@H](NC(=O)[C@@H]2C[C@@H](O)CN2C(=O)[C@H](C(C)C)n2cc(-c3ccc(COc4c(-c5c(C)c(F)cc6[nH]ncc56)c(C5CC5)cc5c(N6C[C@@H]7C[C@H]6CN7)nc(OC6CCC7(CC6)COC7)nc45)cc3)nn2)[C@@H](C)O)cc1 [Example 130, (2S,4R)-1-((2S)-2-(4-(4-(((2-((2-oxaspiro[3.5]nonan-7-yl)oxy)-4-((1S,4S)-2,5-diazabicyclo[2.2.1]heptan-2-yl)-6-cyclopropyl-7-(6-fluoro-5-methyl-1H-indazol-4-yl)quinazolin-8-yl)oxy)methyl)phenyl)-1H-1,2,3-triazol-1-yl)-3-methylbutanoyl)-N-((1R,2R)-1-(4-(1-ethyl-1H-pyrazol-5-yl)phenyl)-2-hydroxypropyl)-4-hydroxypyrrolidine-2-carboxamide] | < 10 nM | < 10 nM |  |
| CCn1nccc1-c1ccc([C@@H](NC(=O)[C@@H]2C[C@@H](O)CN2C(=O)[C@H](C(C)C)n2cc(-c3ccc(COc4c(-c5c(C)c(F)cc6[nH]ncc56)c(C5CC5)cc5c(N6C[C@@H]7C[C@H]6CN7)nc(OC6CC7(CCOCC7)C6)nc45)cc3)nn2)[C@H](C)O)cc1 [Example 113, (2S,4R)-1-((2S)-2-(4-(4-(((2-((7-oxaspiro[3.5]nonan-2-yl)oxy)-4-((15,45)-2,5-diazabicyclo[2.2.1]heptan-2-yl)-6-cyclopropyl-7-(6-fluoro-5-methyl-1H-indazol-4-yl)quinazolin-8-yl)oxy)methyl)phenyl)-1H-1,2,3-triazol-1-yl)-3-methylbutanoyl)-N-((1R,2S)-1-(4-(1-ethyl-1H-pyrazol-5-yl)phenyl)-2-hydroxypropyl)-4-hydroxypyrrolidine-2-carboxamide] | < 10 nM | < 10 nM |  |

More lines, now with the values ahead:

| DC50 [1] | IC50 ([2]; Homo sapiens, ASPC1, 144 h) | IC50 [2] | Compound |
| --- | --- | --- | --- |
| < 10 nM | < 10 nM |  | CCn1nccc1-c1ccc([C@H](CO)NC(=O)[C@@H]2C[C@@H](O)CN2C(=O)[C@H](C(C)C)n2cc(-c3ccc(COc4c(-c5c(C)c(F)cc6[nH]ncc56)c(C5CC5)cc5c(N(C)[C@@H]6CCNC6)nc(OC[C@H](C)OC)nc45)cc3)nn2)c2c1CC2 [Example 192, (2S,4R)-1-((2S)-2-(4-(4-(((6-cyclopropyl-7-(6-fluoro-5-methyl-1H-indazol-4-yl)-2-((S)-2-methoxypropoxy)-4-(methyl((R)-pyrrolidin-3-yl)amino)quinazolin-8-yl)oxy)methyl)phenyl)-1H-1,2,3-triazol-1-yl)-3-methylbutanoyl)-N—((R)-1-(5-(1-ethyl-1H-pyrazol-5-yl)bicyclo[4.2.0]octa-1(6),2,4-trien-2-yl)-2-hydroxyethyl)-4-hydroxypyrrolidine-2-carboxamide] |
| < 10 nM | < 10 nM |  | CO[C@@H](C)COc1nc(N(C)[C@@H]2CCNC2)c2cc(C3CC3)c(-c3c(C)c(F)cc4[nH]ncc34)c(OCc3ccc(-c4cn([C@H](C(=O)N5C[C@H](O)C[C@H]5C(=O)N[C@H](c5ccc(-c6scnc6C)cc5)[C@H](C)O)C(C)C)nn4)cc3)c2n1 [Example 187, (2S,4R)-1-((2S)-2-(4-(4-(((6-cyclopropyl-7-(6-fluoro-5-methyl-1H-indazol-4-yl)-2-((S)-2-methoxypropoxy)-4-(methyl((R)-pyrrolidin-3-yl)amino)quinazolin-8-yl)oxy)methyl)phenyl)-1H-1,2,3-triazol-1-yl)-3-methylbutanoyl)-4-hydroxy-N-((1R,2S)-2-hydroxy-1-(4-(4-methylthiazol-5-yl)phenyl)propyl)pyrrolidine-2-carboxamide] |
| < 10 nM |  | 10 to 100 nM | CCn1nccc1-c1ccc([C@H](C)NC(=O)[C@@H]2C[C@@H](O)CN2C(=O)[C@H](C(C)C)n2cc(-c3ccc(COc4c(-c5c(C)c(F)cc6[nH]ncc56)c(C5CC5)cc5c(N6C[C@H]7C[C@@H]6CN7)nc(OC[C@H](C)OC)nc45)cc3)nn2)cc1 (single isomer, unassigned) [Example 4A] |
